From patent publication US8030478B2, “Method for nucleic acid replication and novel artificial base pairs” (priority 2005, dated 2011) come the findings set out here.

One may read the Km as the substrate concentration at which the rate is half of its maximum.

Read-outs that look alike come from different tables or passages of the source.

Test [1] deals with T7 RNA polymerase (Escherichia phage T7, UniProt P00573). The note with it: for transcripts biotinylated (incorporation rate): DNA6 template obtained by ligation; for misincorporation opposite natural bases, yield of biotinylated transcripts / misincorporation per base position in the 152-mer transcripts: DNAcont2 template.
Chain of T7 RNA polymerase (P00573 whole entry, the tested form may be a part): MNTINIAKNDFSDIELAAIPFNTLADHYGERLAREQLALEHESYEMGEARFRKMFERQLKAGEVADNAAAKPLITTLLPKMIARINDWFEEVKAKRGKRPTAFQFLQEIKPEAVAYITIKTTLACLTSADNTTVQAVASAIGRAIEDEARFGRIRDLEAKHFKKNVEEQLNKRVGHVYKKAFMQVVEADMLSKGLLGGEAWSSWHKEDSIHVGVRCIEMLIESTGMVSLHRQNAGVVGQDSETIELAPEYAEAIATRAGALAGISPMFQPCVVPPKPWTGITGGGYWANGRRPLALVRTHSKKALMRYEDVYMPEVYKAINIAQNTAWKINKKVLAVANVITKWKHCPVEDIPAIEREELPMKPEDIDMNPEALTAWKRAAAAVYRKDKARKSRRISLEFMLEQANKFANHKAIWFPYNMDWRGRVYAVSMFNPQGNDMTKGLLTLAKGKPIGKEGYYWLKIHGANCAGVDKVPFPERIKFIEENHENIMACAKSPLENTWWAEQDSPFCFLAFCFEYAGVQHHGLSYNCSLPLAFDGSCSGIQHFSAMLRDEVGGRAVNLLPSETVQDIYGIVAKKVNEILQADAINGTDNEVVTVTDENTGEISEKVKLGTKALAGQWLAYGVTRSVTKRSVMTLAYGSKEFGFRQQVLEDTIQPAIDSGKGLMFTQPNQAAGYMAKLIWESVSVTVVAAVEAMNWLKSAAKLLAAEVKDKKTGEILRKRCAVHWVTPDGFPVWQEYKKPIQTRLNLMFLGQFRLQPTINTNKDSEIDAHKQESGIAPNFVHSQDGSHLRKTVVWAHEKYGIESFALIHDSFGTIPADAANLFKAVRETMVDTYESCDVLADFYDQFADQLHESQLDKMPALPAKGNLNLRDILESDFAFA
Method: 152-mer RNAs transcribed with Bio-PaTP from DNA6 template obtained by ligation and DNAcont2 template obtained by PCR amplification (20 cycles), as well as 152-mer RNAs transcribed with biotinylated UTP (Bio-UTP) from DNAcont5 and DNAcont6 templates obtained by ligation were mixed with streptavidin. Biotinylated RNA-streptavidin complexes were separated from free RNAs on a 7% polyacrylamide-7 M urea gel, and the percentages (yields) of the complexes were determined from their band intensity.
Transcription (20 μl) was performed for 6 hours at 37° C. using 3 μCi [γ-^32P]GTP, 2 mM each natural NTP, 0-4 mM Bio-PaTP (biotinylated Pa substrate: chemically synthesized as shown in Example IV), and 30 nM template (DNA6 and DNAcont2 (see FIG. 6), obtained by both ligation and PCR amplification).
For control reactions using DNAcont5 and DNAcont6 obtained by ligation (see FIG. 6), transcription was performed only with 2 mM ATP, GTP and CTP in the presence or absence of 2 mM Bio-UTP (biotin-16-uridine-5′-triphosphate, Roche Applied Science). The products were analyzed and purified on a 7-10% polyacrylamide-7 M urea gel.
The biotinylated RNA transcripts were detected by gel shift assay using streptavidin. A mixture (10 μl) of 2 pmol ^32P-labeled transcript and 100 pmol streptavidin (Promega) was incubated at 20° C. for 1 hour in 10 mM Tris-HCl buffer (pH 7.6) containing 50 mM NaCl and 10 mM EDTA. The biotinylated RNA-streptavidin complexes were analyzed by electrophoresis on a 7% polyacrylamide-7 M urea gel. To determine the position where Bio-Pa was introduced, each RNA (152-mer) was labeled with [γ-^32P]ATP (Perkin Elmer) after 5′-dephosphorylation with calf intestinal alkaline phosphatase (Takara). The labeled RNA was partially digested with RNase T1 at 55° C. for 12 minutes in 13.3 mM sodium citrate buffer (pH 5.0) containing 4.7 M urea, 0.7 mM EDTA and 0.17 mg/ml E. coli tRNA, or with alkali at 90° C. for 15 minutes in 32 mM sodium carbonate buffer (pH 9.1) containing 0.6 mM EDTA. The alkali-digested RNA solution (9 μl) was mixed with 11 μl of 20 mM Tris-HCl buffer (pH 7.6) containing 150 mM NaCl, and the mixture (10 μl) was then incubated with streptavidin magnetic beads (0.4 mg) (New England BioLabs) for 5 minutes at room temperature to capture the biotinylated RNA. An aliquot (5 μl) of the supernatant was analyzed together with other digested samples on a 10% polyacrylamide-7 M urea gel.
Test [2] deals with T1, Klenow fragment lacking exonuclease activity (KF exo−) (Escherichia coli, UniProt P00582, D355A/E357A).
T1 construct: enzyme solution of the Klenow fragment lacking exonuclease activity (KF exo^−, Amersham USB); purchased Amersham USB
T1 sequence (P00582 324-928 D355A/E357A): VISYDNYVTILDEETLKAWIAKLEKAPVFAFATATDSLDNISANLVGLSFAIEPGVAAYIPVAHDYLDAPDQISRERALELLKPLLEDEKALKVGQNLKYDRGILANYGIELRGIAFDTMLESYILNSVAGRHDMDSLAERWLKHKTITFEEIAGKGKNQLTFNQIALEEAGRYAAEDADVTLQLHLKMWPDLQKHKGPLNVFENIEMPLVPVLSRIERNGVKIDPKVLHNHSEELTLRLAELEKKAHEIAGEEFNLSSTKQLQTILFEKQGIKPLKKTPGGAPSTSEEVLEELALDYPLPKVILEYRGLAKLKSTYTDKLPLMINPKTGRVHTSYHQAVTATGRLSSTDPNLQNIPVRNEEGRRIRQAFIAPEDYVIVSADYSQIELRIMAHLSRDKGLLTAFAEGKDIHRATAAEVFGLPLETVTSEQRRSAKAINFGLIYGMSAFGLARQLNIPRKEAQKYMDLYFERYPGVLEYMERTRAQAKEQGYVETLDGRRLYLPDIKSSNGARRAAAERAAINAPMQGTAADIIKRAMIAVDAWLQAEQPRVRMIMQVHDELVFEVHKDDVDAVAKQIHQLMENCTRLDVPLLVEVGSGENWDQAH
In kind it is biochemical, E. coli. The note with it: for Efficiency (Vmax/KM) / Km / Vmax: 37° C.; for inserted products (KM, Vmax n.d.): 20 minutes, 1500 μM nucleoside 5′-triphosphate, 50 nM enzyme. How it is done:
The single nucleotide insertion experiment was performed as described in documents (Non-patent Documents 30-32). A primer (20-mer) labeled with 6-carboxylfluorescein at the 5′-end was annealed with template DNA (35-mer) by heating at 95° C. and slow cooling to 4° C. in 100 mM Tris-HCl (pH 7.5) buffer containing 20 mM MgCl2, 2 mM DTT and 0.1 mg/ml bovine serum albumin. The primer-template duplex solution (10 μM, 5 μl) was mixed with 2 μl enzyme solution of the Klenow fragment lacking exonuclease activity (KF exo^−, Amersham USB). After the mixture was incubated for 2 minutes, each dNTP solution (3 μl) was added to this solution to start the reaction at 37° C. The amount of the enzyme used (5-50 nM), the reaction time (1-35 minutes) and the gradient concentration of each dNTP (0.3-1500 μM) were adjusted to ensure conditions giving 25% or less products. The reaction was stopped with 10 μl stop solution (95% formamide and 20 mM EDTA), and the mixture was immediately heated at 75° C. for 3 minutes. The diluted products were analyzed in an automated ABI377 DNA sequencer equipped with GeneScan software (version 3.0) (Non-patent Document 32). The relative velocity (v0) was calculated by dividing the extent of reaction by the reaction time, and then normalized to the enzyme concentration (20 nM) for the various enzyme concentrations used. Kinetic parameters (KM and Vmax) were obtained from Hanes-Woolf plots of [dNTP]/v0 against [dNTP].
Each parameter was averaged from 3 to 8 data sets.

As for `O=Cc1cc(C#CCNC(=O)CCCC[C@@H]2SC[C@@H]3NC(=O)N[C@@H]32)cn1[C@@H]1O[C@H](COP(=O)(O)OP(=O)(O)OP(=O)(O)O)[C@@H](O)[C@H]1O` [Bio-PaTP, 1-(β-D-ribofuranosyl)-4-[(3-biotinamido-1-propynyl)]pyrrole-2-carbaldehyde 5′-triphosphate], in test [1] (2 mM Bio-PaTP), the “transcripts biotinylated (incorporation rate)” value is 90%; the “misincorporation opposite natural bases, yield of biotinylated transcripts” value is on record as 9%; the “misincorporation per base position in the 152-mer transcripts” value stood at 0.06%. Besides, in test [1] (4 mM Bio-PaTP), the “transcripts biotinylated (incorporation rate)” value was determined as 96%; the “misincorporation opposite natural bases, yield of biotinylated transcripts” value worked out at 16%; the “misincorporation per base position in the 152-mer transcripts” value stood at 0.12%. In test [1] (template from PCR (20 cycles), FIG. 44d, Lanes 9 and 11), the “reduction of incorporation rate with template obtained by PCR amplification” value is 3-4%.
Regarding `Nc1ccn([C@H]2C[C@H](O)[C@@H](COP(=O)(O)OP(=O)(O)OP(=O)(O)O)O2)c(=O)n1` [dCTP, reference compound], the “Efficiency (Vmax/KM)” value in test [2] (template (N) = A, temp35N-1) is on record as 1.8 × 10^3 % min^−1M^−1; in test [2] (template (N) = Ds, temp35N-1), 8.3 × 10^2 % min^−1M^−1; in test [2] (template (N) = G, temp35N-1), 2.3 × 10^7 % min^−1M^−1. The Km in test [2] (template (N) = A, temp35N-1) amounted to 1200 µM; in test [2] (template (N) = Ds, temp35N-1) it was 410 µM; in test [2] (template (N) = G, temp35N-1), 0.24 µM. Moreover, the Vmax in test [2] (template (N) = A, temp35N-1) is 2.2 % min^−1; in test [2] (template (N) = Ds, temp35N-1) it was 0.34 % min^−1; in test [2] (template (N) = G, temp35N-1), 5.5 % min^−1. Further, the “inserted products (KM, Vmax n.d.)” value in test [2] (template (N) = Pa, temp35N-2) is “n.d.^c (Minimal inserted products (<2%) were detected after incubation for 20 minutes with 1500 μM nucleoside 5′-triphosphate and 50 nM enzyme.)”; in test [2] (template (N) = Pa′, temp35N-2) it was “n.d. (Minimal inserted products (<2%) were detected after incubation for 20 minutes with 1500 μM nucleoside 5′-triphosphate and 50 nM enzyme.)”.
As to `Nc1nc2c(ncn2[C@H]2C[C@H](O)[C@@H](COP(=O)(O)OP(=O)(O)OP(=O)(O)O)O2)c(=O)[nH]1` [dGTP, reference compound], the “Efficiency (Vmax/KM)” value in test [2] (template (N) = C, temp35N-2) is 7.0 × 10^6 % min^−1M^−1; in test [2] (template (N) = Pa, temp35N-2), 8.8 × 10^2 % min^−1M^−1; in test [2] (template (N) = Pa′, temp35N-2), 5.5 × 10^2 % min^−1M^−1; in test [2] (template (N) = T, temp35N-2), 2.9 × 10^3 % min^−1M^−1. Further, the Km in test [2] (template (N) = C, temp35N-2) turned out to be 2.3 µM; in test [2] (template (N) = Pa, temp35N-2), 480 µM; in test [2] (template (N) = Pa′, temp35N-2), 800 µM; in test [2] (template (N) = T, temp35N-2), 420 µM. The Vmax in test [2] (template (N) = C, temp35N-2) was determined as 16 % min^−1; in test [2] (template (N) = Pa, temp35N-2) it was 0.42 % min^−1; in test [2] (template (N) = Pa′, temp35N-2), 0.44 % min^−1; in test [2] (template (N) = T, temp35N-2) it was 12 % min^−1. Moreover, in test [2] (template (N) = Ds, temp35N-1), the “inserted products (KM, Vmax n.d.)” value was “n.d.^c (Minimal inserted products (<2%) were detected after incubation for 20 minutes with 1500 μM nucleoside 5′-triphosphate and 50 nM enzyme.)”.
Turning to `O=Cc1cccn1[C@H]1C[C@H](O)[C@@H](COP(=O)(O)OP(=O)(O)OP(=O)(O)O)O1` [dPaTP], the “Efficiency (Vmax/KM)” value in test [2] (template (N) = A, temp35N-1) is 5.2 × 10^4 % min^−1M^−1; in test [2] (template (N) = Ds, temp35N-1), 6.2 × 10^4 % min^−1M^−1; in test [2] (template (N) = G, temp35N-1) it was 4.4 × 10^2 % min^−1M^−1; in test [2] (template (N) = Pa, temp35N-2), 1.5 × 10^3 % min^−1M^−1; in test [2] (template (N) = T, temp35N-1), 3.1 × 10^2 % min^−1M^−1. Also, the Michaelis constant (Km) in test [2] (template (N) = A, temp35N-1) was determined as 330 µM; in test [2] (template (N) = Ds, temp35N-1), 340 µM; in test [2] (template (N) = G, temp35N-1) it was 140 µM; in test [2] (template (N) = Pa, temp35N-2), 380 µM; in test [2] (template (N) = T, temp35N-1) it was 170 µM. Also, the Vmax in test [2] (template (N) = A, temp35N-1) amounted to 17 % min^−1; in test [2] (template (N) = Ds, temp35N-1), 21 % min^−1; in test [2] (template (N) = G, temp35N-1) it was 0.061 % min^−1; in test [2] (template (N) = Pa, temp35N-2), 0.56 % min^−1; in test [2] (template (N) = T, temp35N-1), 0.053 % min^−1. Also, the “inserted products (KM, Vmax n.d.)” value in test [2] (template (N) = C, temp35N-1) is “n.d. (Minimal inserted products (<2%) were detected after incubation for 20 minutes with 1500 μM nucleoside 5′-triphosphate and 50 nM enzyme.)”.
Consider `CC#Cc1cc(C=O)n([C@H]2C[C@H](O)[C@@H](COP(=O)(O)OP(=O)(O)OP(=O)(O)O)O2)c1` [dPa′TP], for which, in test [2] (KF exo−, template Ds), the “efficiency of incorporation opposite Ds in the template relative to that of dPaTP” value was 3.9 fold. Also, the “Efficiency (Vmax/KM)” value in test [2] (template (N) = A, temp35N-1) was 1.8 × 10^5 % min^−1M^−1; in test [2] (template (N) = C, temp35N-1) it was 7.4 × 10^2 % min^−1M^−1; in test [2] (template (N) = Ds, temp35N-1), 2.6 × 10^5 % min^−1M^−1; in test [2] (template (N) = G, temp35N-1), 1.6 × 10^3 % min^−1M^−1; in test [2] (template (N) = Pa′, temp35N-2), 4.1 × 10^4 % min^−1M^−1; in test [2] (template (N) = T, temp35N-1), 1.6 × 10^3 % min^−1M^−1. Further, the Km in test [2] (template (N) = A, temp35N-1) came to 110 µM; in test [2] (template (N) = C, temp35N-1), 80 µM; in test [2] (template (N) = Ds, temp35N-1), 82 µM; in test [2] (template (N) = G, temp35N-1), 80 µM; in test [2] (template (N) = Pa′, temp35N-2), 190 µM; in test [2] (template (N) = T, temp35N-1) it was 120 µM. Besides, the Vmax stood at 20 % min^−1 in test [2] (template (N) = A, temp35N-1); 0.059 % min^−1 in test [2] (template (N) = C, temp35N-1); 21 % min^−1 in test [2] (template (N) = Ds, temp35N-1); 0.13 % min^−1 in test [2] (template (N) = G, temp35N-1); 7.8 % min^−1 in test [2] (template (N) = Pa′, temp35N-2); 0.19 % min^−1 in test [2] (template (N) = T, temp35N-1).
As to `Cc1cn([C@H]2C[C@H](O)[C@@H](COP(=O)(O)OP(=O)(O)OP(=O)(O)O)O2)c(=O)[nH]c1=O` [dTTP, reference compound], the “Efficiency (Vmax/KM)” value in test [2] (template (N) = A, temp35N-1) is listed as 4.0 × 10^6 % min^−1M^−1; in test [2] (template (N) = Ds, temp35N-1), 1.9 × 10^3 % min^−1M^−1; in test [2] (template (N) = G, temp35N-1) it was 2.1 × 10^3 % min^−1M^−1; in test [2] (template (N) = Pa, temp35N-2) it was 1.1 × 10^2 % min^−1M^−1; in test [2] (template (N) = Pa′, temp35N-2) it was 1.0 × 10^2 % min^−1M^−1. The Km in test [2] (template (N) = A, temp35N-1) turned out to be 0.7 µM; in test [2] (template (N) = Ds, temp35N-1) it was 220 µM; in test [2] (template (N) = G, temp35N-1), 140 µM; in test [2] (template (N) = Pa, temp35N-2), 880 µM; in test [2] (template (N) = Pa′, temp35N-2) it was 1400 µM. Besides, the Vmax in test [2] (template (N) = A, temp35N-1) worked out at 2.8 % min^−1; in test [2] (template (N) = Ds, temp35N-1), 0.41 % min^−1; in test [2] (template (N) = G, temp35N-1), 0.29 % min^−1; in test [2] (template (N) = Pa, temp35N-2) it was 0.097 % min^−1; in test [2] (template (N) = Pa′, temp35N-2), 0.14 % min^−1.
As to “biotin-16-uridine-5′-triphosphate [Bio-UTP, reference compound]”, the “biotinylation of transcripts by incorporation opposite A” value in test [1] (DNAcont5 template, 2 mM Bio-UTP, 2 mM ATP, GTP and CTP) is listed as “completely biotinylated”. Also, the “transcripts biotinylated by misincorporation opposite bases G, C and T” value in test [1] (DNAcont6 template, 2 mM Bio-UTP, 2 mM ATP, GTP and CTP) is reported as 21%.
For dATP [reference compound], the “Efficiency (Vmax/KM)” value in test [2] (template (N) = C, temp35N-2) was 4.6 × 10^3 % min^−1M^−1; in test [2] (template (N) = Ds, temp35N-1), 2.4 × 10^3 % min^−1M^−1; in test [2] (template (N) = Pa, temp35N-2), 4.3 × 10^4 % min^−1M^−1; in test [2] (template (N) = Pa′, temp35N-2) it was 3.7 × 10^4 % min^−1M^−1; in test [2] (template (N) = T, temp35N-2), 4.1 × 10^6 % min^−1M^−1. Also, the Km in test [2] (template (N) = C, temp35N-2) amounted to 500 µM; in test [2] (template (N) = Ds, temp35N-1), 150 µM; in test [2] (template (N) = Pa, temp35N-2) it was 490 µM; in test [2] (template (N) = Pa′, temp35N-2), 570 µM; in test [2] (template (N) = T, temp35N-2), 0.81 µM. Also, the Vmax in test [2] (template (N) = C, temp35N-2) turned out to be 2.3 % min^−1; in test [2] (template (N) = Ds, temp35N-1) it was 0.36 % min^−1; in test [2] (template (N) = Pa, temp35N-2), 21 % min^−1; in test [2] (template (N) = Pa′, temp35N-2) it was 21 % min^−1; in test [2] (template (N) = T, temp35N-2) it was 3.3 % min^−1.
